Data: DBAASP
≈ marks a conversion by molar mass, not a printed value. Blank lines part the entries; values can stand above or below the compound they belong to.

Experiments:
Experiment in all cases: ≥ marks a high value that may be exact or a test limit, other limits are often not marked, values filed in µg/mL are converted to µM
[1] = tested on: Pseudomonas aeruginosa IFO 12582
[2] = tested on: Bacillus subtilis IFO 3134
[3] = tested on: Staphylococcus aureus IFO 12732
[4] = tested on: Escherichia coli IFO 12734
[5] = tested on: Staphylococcus epidermidis RP62A
[6] = tested on: Escherichia coli ATCC 25726
[7] = tested on: Acinetobacter baumannii NM124
[8] = tested on: Xanthomonas campestris pv. Vesicatoria 2133-2
[9] = tested on: Staphylococcus epidermidis T6/19
[10] = tested on: Stenotrophomonas maltophilia B6/2
[11] = tested on: Stenotrophomonas maltophilia B5/5
[12] = tested on: Staphylococcus aureus V4180
[13] = tested on: Xanthomonas arboricola pv. pruni CFBP 5563
[14] = tested on: Staphylococcus epidermidis RP62A/1
[15] = tested on: Acinetobacter baumannii NM109
[16] = tested on: Stenotrophomonas maltophilia U8908
[17] = tested on: Enterococcus faecalis ATCC 29212
[18] = tested on: Xanthomonas fragariae Xf349-9A
[19] = tested on: Staphylococcus aureus T4/6
[20] = tested on: Stenotrophomonas maltophilia B32/4
[21] = tested on: Stenotrophomonas maltophilia B32/1
[22] = tested on: Klebsiella pneumoniae ATCC 700603
[23] = tested on: Erwinia amylovora PMV 6076
[24] = tested on: Candida albicans ATCC 90028
[25] = tested on: Pseudomonas syringae pv. actinidiae Psa3700.1.1
[26] = tested on: Acinetobacter baumannii NM75
[27] = tested on: Staphylococcus aureus ATCC 25923
[28] = tested on: Pseudomonas syringae pv. syringae EPS 94
[29] = tested on: Acinetobacter baumannii NM8
[30] = tested on: Acinetobacter baumannii NM35
[31] = tested on: Staphylococcus aureus S908
[32] = tested on: Staphylococcus aureus 145/08
[33] = tested on: Staphylococcus aureus 127/08
[34] = tested on: Staphylococcus epidermidis T37/8
[35] = tested on: Pseudomonas aeruginosa ATCC 27853
[36] = tested on: Staphylococcus aureus 274/08
[37] = tested on: Staphylococcus aureus FDA 209P
[38] = tested on: Bacillus subtilis PCI 219
[39] = tested on: Escherichia coli NIHJ JC-2
[40] = tested on: Pseudomonas aeruginosa U-31
[41] = tested on: Staphylococcus aureus A170
[42] = tested on: Staphylococcus epidermidis
Staphylococcus aureus = tested on: Staphylococcus aureus
Escherichia coli W160-37 = tested on: Escherichia coli W160-37

SMILES: CC[C@H](C)[C@H](NC(=O)[C@H](C)NC(=O)[C@@H]1CCCN1C(=O)[C@@H](NC(=O)[C@@H](NC(=O)[C@H](Cc1cnc[nH]1)NC(=O)[C@H](C)NC(=O)[C@H](C)NC(=O)[C@@H](NC(=O)[C@H](CCCCN)NC(=O)[C@H](C)NC(=O)[C@H](CC(C)C)NC(=O)[C@@H](NC(=O)CNC(=O)[C@H](Cc1ccccc1)NC(=O)[C@H](C)N)C(C)C)C(C)C)C(C)C)C(C)C)C(=O)N[C@@H](C)C(=O)N[C@@H](CCC(=O)O)C(=O)N[C@@H](Cc1cnc[nH]1)C(=O)N[C@@H](Cc1ccccc1)C(N)=O [AFGVLAKVAAHVVPAIAEHF]
MIC [1]: ≥ 64 µM
MIC [2]: ≥ 64 µM
MIC [3]: ≥ 64 µM
MIC [4]: ≥ 64 µM

SMILES: CC(C)C[C@H](NC(=O)[C@H](CCCCN)NC(=O)[C@H](CCCCN)NC(=O)[C@H](CC(C)C)NC(=O)[C@H](CC(C)C)NC(=O)[C@H](CCCCN)NC(=O)[C@H](CCCCN)NC(=O)[C@H](Cc1c[nH]c2ccccc12)NC(=O)[C@H](CC(C)C)NC(=O)[C@H](CCCCN)NC(=O)[C@H](CC(C)C)NC(=O)[C@H](CC(C)C)NC(=O)[C@H](CCCCN)NC(=O)[C@H](CCCCN)NC(=O)[C@H](CC(C)C)NC(=O)[C@H](CC(C)C)NC(=O)[C@@H](N)CCCCN)C(=O)N[C@@H](CCCCN)C(=O)O [KLLKKLLKLWKKLLKKLK]
MIC [37]: ≥ 44.2 µM
MIC [38]: ≥ 44.2 µM
MIC [39]: ≥ 44.2 µM
MIC [40]: ≥ 44.2 µM

Further lines, results first:

MIC [5]: 16 µM (≈ 24.8 µg/mL)
MIC [6]: ≥ 125 µM
MIC [7]: ≥ 125 µM
MIC [8]: 8.8 µM (≈ 13.6 µg/mL)
MIC [9]: 8 µM (≈ 12.4 µg/mL)
MIC [10]: 31.3 µM (≈ 48.4 µg/mL)
MIC [11]: ≥ 62.5 µM
MIC [12]: 16 µM (≈ 24.8 µg/mL)
MIC [13]: 8.8 µM (≈ 13.6 µg/mL)
MIC [14]: 8 µM (≈ 12.4 µg/mL)
MIC [15]: ≥ 125 µM
MIC [16]: ≥ 62.5 µM
MIC [17]: 62.5 µM (≈ 96.7 µg/mL)
MIC [18]: ≥ 35.4 µM
MIC [19]: 16 µM (≈ 24.8 µg/mL)
MIC [20]: ≥ 62.5 µM
MIC [21]: ≥ 62.5 µM
MIC [22]: 250 µM (≈ 387 µg/mL)
MIC [23]: ≥ 35.4 µM
MIC [24]: ≥ 62.5 µM
MIC [25]: ≥ 50 µM
MIC [26]: ≥ 62.5 µM
MIC [27]: 16 µM (≈ 24.8 µg/mL)
MIC [28]: ≥ 50 µM
MIC [29]: ≥ 125 µM
MIC [30]: ≥ 125 µM
MIC [31]: 16 µM (≈ 24.8 µg/mL)
MIC [32]: 16 µM (≈ 24.8 µg/mL)
MIC [33]: 8 µM (≈ 12.4 µg/mL)
MIC [34]: 16 µM (≈ 24.8 µg/mL)
MIC [35]: 250 µM (≈ 387 µg/mL)
MIC [36]: 16 µM (≈ 24.8 µg/mL)
SMILES: CC[C@H](C)[C@H](NC(=O)[C@H](C)NC(=O)[C@H](CCCCN)NC(=O)CNC(=O)[C@@H](NC(=O)[C@H](Cc1cnc[nH]1)NC(=O)CNC(=O)[C@H](CC(C)C)NC(=O)[C@H](CC(C)C)NC(=O)[C@@H](NC(=O)CNC(=O)[C@@H](NC(=O)[C@H](CC(C)C)NC(=O)CN)C(C)C)[C@@H](C)O)[C@@H](C)CC)C(=O)N[C@@H](CC(C)C)C(=O)N[C@@H](CO)C(N)=O [GLVGTLLGHIGKAILS]

MIC [41]: 6.97 µM (≈ 10 µg/mL)
MIC [42]: 13.9 µM (≈ 20 µg/mL)
SMILES: CC[C@H](C)[C@H](NC(=O)[C@@H]1CCCN1C(=O)[C@H](CC(C)C)NC(=O)[C@@H](N)CC(C)C)C(=O)N[C@H](C(=O)N[C@H](C(=O)N[C@@H](CC(N)=O)C(=O)N[C@@H](CC(C)C)C(=O)N[C@@H](CC(C)C)C(=O)N[C@@H](CCCCN)C(=O)N[C@@H](CO)C(=O)N[C@@H](CC(C)C)C(=O)N[C@@H](CC(C)C)C(=O)O)C(C)C)C(C)C [LLPIVVNLLKSLL]

MIC (Staphylococcus aureus): 107 µM (≈ 152 µg/mL)
MIC (Escherichia coli W160-37): ≥ 107 µM
SMILES: CC[C@H](C)[C@H](NC(=O)[C@H](Cc1c[nH]c2ccccc12)NC(=O)[C@H](CCCCN)NC(=O)[C@H](CO)NC(=O)[C@H](CC(C)C)NC(=O)[C@H](Cc1ccccc1)NC(=O)[C@@H](NC(=O)[C@H](CCCCN)NC(=O)[C@H](CC(C)C)NC(=O)[C@H](CCCCN)NC(=O)[C@@H]1CCCN1)[C@@H](C)O)C(=O)NCC(=O)O [PKLKTFLSKWIG]
